These compounds were tested against T1, human type 1 glycine transporter (GlyT1) (Homo sapiens, UniProt P48067) (assay: Glycine uptake inhibition experiment ([3H] glycine uptake in T98G cells expressing GlyT1)). Settings: not given.
T1 construct: T98G cells (glioma cells) expressing human type 1 glycine transporter (GlyT1) were used; endogenous in cells; host or cells: T98G cells (human glioma cells)
T1 sequence (P48067 1-706): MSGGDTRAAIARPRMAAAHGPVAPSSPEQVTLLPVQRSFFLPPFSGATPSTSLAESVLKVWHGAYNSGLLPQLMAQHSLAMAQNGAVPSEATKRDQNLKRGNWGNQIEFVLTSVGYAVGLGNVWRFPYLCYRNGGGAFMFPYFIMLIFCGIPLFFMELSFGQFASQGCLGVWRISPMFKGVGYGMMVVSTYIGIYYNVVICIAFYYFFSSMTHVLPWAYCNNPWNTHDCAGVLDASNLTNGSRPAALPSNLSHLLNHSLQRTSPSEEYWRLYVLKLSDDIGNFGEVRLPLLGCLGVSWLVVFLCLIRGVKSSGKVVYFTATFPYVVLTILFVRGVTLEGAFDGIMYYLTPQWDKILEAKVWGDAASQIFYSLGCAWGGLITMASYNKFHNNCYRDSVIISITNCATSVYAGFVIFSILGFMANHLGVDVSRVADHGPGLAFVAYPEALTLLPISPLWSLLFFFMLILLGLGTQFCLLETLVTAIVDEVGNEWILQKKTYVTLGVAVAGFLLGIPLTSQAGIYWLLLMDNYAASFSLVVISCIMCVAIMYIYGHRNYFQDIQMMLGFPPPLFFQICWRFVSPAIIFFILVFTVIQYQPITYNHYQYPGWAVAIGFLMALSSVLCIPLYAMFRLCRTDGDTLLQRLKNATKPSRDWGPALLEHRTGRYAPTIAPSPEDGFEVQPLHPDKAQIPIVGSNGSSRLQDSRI
Type: cell-based
How it was run: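 T98G glioma cells expressing human GlyT1 were pretreated 10 min with compound in HEPES buffer pH 7.4 (0.2% BSA), then incubated with compound plus 250 nM final [3H]glycine for 15 min at room temperature. Intracellular radioactivity was counted after NaOH lysis; 10 μM ALX5407 defined non-specific uptake. IC50 came from 10^−9–10^−5 M curves.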

SMILES	IC50
C[C@H](O)c1cccc2c1C(F)(F)C(=O)N2Cc1cncc(C2CC2)c1 [Compound 174, 1-[(5-cyclopropylpyridin-3-yl)methyl]-3,3-difluoro-4-[(1S)-1-hydroxyethyl]-1,3-dihydro-2H-indol-2-one]	95 nM
O=C1N(Cc2ccnc(OC(F)F)c2)c2cccc(C(O)C(F)F)c2C1(F)F (single isomer, unassigned) [Compound 218, 4-(2,2-difluoro-1-hydroxyethyl)-1-{[2-(difluoromethoxy)pyridin-4-yl]methyl}-3,3-difluoro-1,3-dihydro-2H-indol-2-one]	10 nM
COc1cc(CN2C(=O)C(F)(F)c3c([C@H](C)O)cccc32)ncc1Cl [Compound 232, 1-[(5-chloro-4-methoxypyridin-2-yl)methyl)-3,3-difluoro-4-[(1S)-1-hydroxyethyl]-1,3-dihydro-2H-indol-2-one]	32 nM
COc1ccc(CN2C(=O)C(F)(F)c3c([C@H](C)O)cccc32)cn1 [Compound 203, 3,3-difluoro-4-[(1S)-1-hydroxyethyl]-1-[(6-methoxypyridin-3-yl)methyl]-1,3-dihydro-2H-indol-2-one]	31 nM
C[C@H](O)c1cccc2c1C(F)(F)C(=O)N2Cc1cc(C#N)ncc1F [Compound 188, 4-({3,3-difluoro-4-[(1S)-1-hydroxyethyl]-2-oxo-2,3-dihydro-1H-indol-1-yl}methyl)-5-fluoropyridine-2-carbonitrile]	62 nM
C[C@H](O)c1cccc2c1C(F)(F)C(=O)N2Cc1ccc(C2CC2)nc1 [Compound 198, 1-[(6-cyclopropylpyridin-3-yl)methyl]-3,3-difluoro-4-[(1S)-1-hydroxyethyl]-1,3-dihydro-2H-indol-2-one]	160 nM
C[C@H](O)c1cccc2c1C(F)(F)C(=O)N2Cc1ccc(C(F)(F)F)nc1Cl [Compound 239, 1-{[2-chloro-6-(trifluoromethyl)pyridin-3-yl]methyl}-3,3-difluoro-4-[(1S)-1-hydroxyethyl]-1,3-dihydro-2H-indol-2-one]	220 nM
O=C1N(Cc2ccc(C(F)(F)F)nc2)c2cccc(C(O)C(F)F)c2C1(F)F (single isomer, unassigned) [Compound 161, 4-(2,2-difluoro-1-hydroxyethyl)-3,3-difluoro-1-{[6-(trifluoromethyl)pyridin-3-yl]methyl}-1,3-dihydro-2H-indol-2-one]	90 nM

Same assay, conditions: glycine uptake inhibition

SMILES	IC50
C[C@H](O)c1cccc2c1C(F)(F)C(=O)N2Cc1cncc(C#N)c1 [Compound 70, 5-({3,3-difluoro-4-[(1S)-1-hydroxyethyl]-2-oxo-2,3-dihydro-1H-indol-1-yl}methyl)pyridine-3-carbonitile]	91 nM
COc1cc(CN2C(=O)C(F)(F)c3c([C@H](C)O)cccc32)ccn1 [Compound 124, 3,3-difluoro-4-[(1S)-1-hydroxyethyl]-1-[(2-methoxypyridin-4-yl)methyl]-1,3-dihydro-2H-indol-2-one]	12 nM
CC(O)c1cccc2c1C(F)(F)C(=O)N2Cc1ccnc(Cl)c1 (single isomer, unassigned) [Compound 33, 1-[(2-chloropyridin-4-yl)methyl]-3,3-difluoro-4-(1-hydroxyethyl)-1,3-dihydro-2H-indol-2-one]	18 nM
CC(O)c1cccc2c1C(F)(F)C(=O)N2Cc1ccnc(Cl)c1 (single isomer, unassigned) [Compound 34, 1-[(2-chloropyridin-4-yl)methyl]-3,3-difluoro-4-(1-hydroxyethyl)-1,3-dihydro-2H-indol-2-one]	4600 nM

Same assay, conditions: table section whose head prints (μm)

SMILES	IC50
O=C1N(Cc2cncc(OC(F)F)c2)c2cccc(C(O)C(F)F)c2C1(F)F (single isomer, unassigned) [Compound 258, 4-(2,2-difluoro-1-hydroxyethyl)-1-{[5-(difluoromethoxy)pyridin-3-yl]methyl}-3,3-difluoro-1,3-dihydro-2H-indol-2-one]	120 nM
C[C@H](O)c1cccc2c1C(F)(F)C(=O)N2Cc1cc(C#N)c(F)cn1 [Compound 262, 2-{(3,3-difluoro-4-[(1S)-1-hydroxyethyl]-2-oxo-2,3-dihydro-1H-indol-1-yl}methyl)-5-fluoropyridine-4-carbonitrile]	62 nM

Source: patent publication US20160159814A1, “GLYCINE TRANSPORTER INHIBITOR” (TAISHO PHARMACEUTICAL CO., LTD., priority 2013, published 2016)
